# From US4880789A, “2'-Substituted-4-deoxy-thiazolo(5,4-c)-rifamycin SV derivatives” (Gruppo Lepetit S.P.A., priority 1985, dated 1989)
# Like-named read-outs stand apart in the source and are kept apart here.
# Key:
# [1] = test system: Proteus vulgaris XI9H ATCC 881; assay: MIC, two-fold dilution microtiter, P. vulgaris; assay type: cell-based; conditions: P. vulgaris XI9H ATCC 881, Iso-Sensitest broth, 18-24 h, 37° C
# S. pneumoniae UC 41 = assay: MIC, two-fold dilution microtiter, S. pneumoniae UC 41; assay type: cell-based; conditions: 18-24 h, 37° C
# [2] = test system: Escherichia coli SKF 12140; assay: MIC, two-fold dilution microtiter, E. coli SKF 12140; assay type: cell-based; conditions: 18-24 h, 37° C
# [3] = test system: Staphylococcus aureus ATCC 6538; assay: MIC, two-fold dilution microtiter, S. aureus ATCC 6538; assay type: cell-based; conditions: S. aureus ATCC 6538, Iso-Sensitest broth, 18-24 h, 37° C
# [4] = test system: Klebsiella pneumoniae ISM; assay: MIC, two-fold dilution microtiter, K. pneumoniae ISM; assay type: cell-based
# S. faecalis ATCC 7080 = assay: MIC, two-fold dilution microtiter, S. faecalis ATCC 7080; assay type: cell-based; conditions: 37° C
# [5] = test system: Pseudomonas aeruginosa ATCC 10145; assay: MIC, two-fold dilution microtiter, P. aeruginosa ATCC 10145; assay type: cell-based; conditions: P. aeruginosa ATCC 10145, Iso-Sensitest broth, 18-24 h, 37° C
# [6] = test system: Streptococcus pyogenes C203; assay: MIC, two-fold dilution microtiter, S. pyogenes C203; assay type: cell-based; conditions: Todd-Hewitt broth, 18-24 h, 37° C
# Description: (§1) The minimum inhibitory concentration (MIC) of representative compounds of the invention was determined using two-fold dilution method in microtiter system. The media used were: Todd-Hewitt broth (Difco) for steptococci; Iso-Sensitest broth (Oxoid) for staphylococci and gram-negative bacteria. The final inoculum was about 10^4 cfμ/ml. […] For M. tuberculosis H37 RV the inoculum consisted of 0.5-1% of a 7-9 day culture in Dubos medium. The tests were carried out in Kirschner medium supplemented with 10% horse serum. Observations were made after 7-days incubation at 37° C.
# [7] = test system: Mycobacterium tuberculosis H37RV ATCC 9360; assay: MIC, M. tuberculosis H37RV, Kirschner medium; assay type: cell-based; conditions: 10% horse serum, 7 days, 37° C
# Description: as §1
# S. aureus TOUR L 165 [8] = assay: MIC, two-fold dilution microtiter, S. aureus TOUR L 165; assay type: cell-based, Staphylococcus aureus
# S. aureus tour L 165 [9] = assay: experimental septicemia in mice (S. aureus); assay type: in vivo; conditions: Staphylococcus aureus, once daily for three days, survival on 10th day
# Description: The antimicrobial activity of the compounds of the invention is also confirmed in "in vivo" tests. The animals (groups of five mice) were infected by intraperitoneal injection of 16-hour broth culture of S. aureus tour L 165. Inocula were adjusted so that untreated animals died of septicemia within 48 hours. Animals were treated once daily for three days starting immediately after infection. On the 10th day the value for the ED50 in mg/kg/day was calculated by the method of […]-KARBER (Finney, D. J., Statistical method in biological assay, page 524. C. Griffin Ltd., London, 1952), on the basis of the percentage of surviving animals at each dose.
# S. aureus TOUR L 1282 = assay: MIC, two-fold dilution microtiter, rifampicin resistant S. aureus TOUR L 1282; assay type: cell-based; conditions: Staphylococcus aureus, TOURL1282, rifampicin resistant strain
# [10] = Proteus vulgaris, ATCC881, read-out: MIC
# [11] = Streptococcus pneumoniae, UC41, Todd-Hewitt broth, read-out: MIC
# [12] = Escherichia coli, SKF12140, Iso-Sensitest broth, read-out: MIC
# [13] = Staphylococcus aureus, ATCC6538, read-out: MIC
# [14] = Klebsiella pneumoniae, K. pneumoniae ISM, Iso-Sensitest broth, 18-24 h, 37° C, read-out: MIC
# [15] = Enterococcus faecalis, ATCC7080, 18-24 h, read-out: MIC
# [16] = Pseudomonas aeruginosa, ATCC10145, read-out: MIC
# [17] = Streptococcus pyogenes, read-out: MIC
# [18] = Mycobacterium tuberculosis, 168 h, read-out: MIC
# [19] = Staphylococcus aureus, TOURL165, S. aureus TOUR L 165, Iso-Sensitest broth, 18-24 h, 37° C, read-out: MIC
# [20] = Staphylococcus aureus, TOURL165, S. aureus TOUR L 165, supplemented with 30% bovine serum, read-out: MIC
Compound,"MIC [1, 10] [µg/mL]",MIC (S. pneumoniae UC 41; [11]) [µg/mL],"MIC [2, 12] [µg/mL]","MIC [3, 13] [µg/mL]","MIC [4, 14] [µg/mL]",MIC (S. faecalis ATCC 7080; [15]) [µg/mL],"ED50 (S. aureus tour L 165 [9]; TOURL165, 240 h, sc) [mg/kg]","ED50 (S. aureus tour L 165 [9]; TOURL165, po, 240 h, os) [mg/kg]","MIC [5, 16] [µg/mL]","MIC [6, 17] [µg/mL]","MIC [7, 18] [µg/mL]",MIC (S. aureus TOUR L 1282) [µg/mL],MIC (S. aureus TOUR L 165 [8]; [19]) [µg/mL],MIC (S. aureus TOUR L 165 [8]; [20]) [µg/mL],further results
"2'(4""-phenylmethoxycarbonyl-1""-piperazinyl) rifamycin P [Example 1f]",,,,,,,,,,,,,,,"MIC [1]: 64 µg/mL; MIC (S. pneumoniae UC 41; Todd-Hewitt broth): 0.064 µg/mL; MIC ([2]; Iso-Sensitest broth): > 128 µg/mL; MIC [3]: 0.064 µg/mL; MIC ([4]; K. pneumoniae ISM, Iso-Sensitest broth, 18-24 h, 37° C): > 128 µg/mL; MIC (S. faecalis ATCC 7080; 18-24 h): 2 µg/mL; MIC [5]: 32 µg/mL; MIC [6]: 0.125 µg/mL; MIC [7]: 0.5 µg/mL; MIC (S. aureus TOUR L 165 [8]; S. aureus TOUR L 165, Iso-Sensitest broth, 18-24 h, 37° C): 0.064 µg/mL; MIC (S. aureus TOUR L 165 [8]; S. aureus TOUR L 165, supplemented with 30% bovine serum): 0.064 µg/mL"
"COC1C=COC2(C)Oc3c(C)c(O)c4c(O)c(c5sc(N6CCOCC6)nc5c4c3C2=O)NC(=O)C(C)=CC=CC(C)C(O)C(C)C(O)C(C)C(OC(C)=O)C1C (stereo not drawn) [Example 1b, 2'-(4""-morpholinyl) rifamycin P]",8,0.016,16,0.001,32,1,0.21,0.21,16,0.032,2,64,0.002,0.008,
"CCN(CC)c1nc2c(s1)c1c(O)c3c(O)c(C)c4c(c32)C(=O)C(C)(OC=CC(OC)C(C)C(OC(C)=O)C(C)C(O)C(C)C(O)C(C)C=CC=C(C)C(=O)N1)O4 (stereo not drawn) [Example 5, 2'-(N,N-diethylamino) rifamycin P]",32,0.032,32,0.032,64,1,0.21,0.82,,0.064,0.5,> 128,0.064,0.5,
"COC1C=COC2(C)Oc3c(C)c(O)c4c(O)c(c5sc(N6CCN(c7ccccc7)CC6)nc5c4c3C2=O)NC(=O)C(C)=CC=CC(C)C(O)C(C)C(O)C(C)C(OC(C)=O)C1C (stereo not drawn) [Example 1c, 2'(4""-phenyl-1""-piperazinyl) rifamycin P]",16,0.004,4,0.004,,1,0.63,2.5,8,0.032,1,> 128,0.008,0.016,MIC ([4]; Klebsiella pneumoniae): > 128 µg/mL
"CCOC(=O)N1CCN(c2nc3c(s2)c2c(O)c4c(O)c(C)c5c(c43)C(=O)C(C)(OC=CC(OC)C(C)C(OC(C)=O)C(C)C(O)C(C)C(O)C(C)C=CC=C(C)C(=O)N2)O5)CC1 (stereo not drawn) [Example 1e, 2'(4""-ethoxycarbonyl-1""-piperazinyl) rifamycin P]",16,0.064,16,0.032,32,4,,,32,0.064,2,128,0.064,0.064,
"COC1C=COC2(C)Oc3c(C)c(O)c4c(O)c(c5sc(N6CCN(CCO)CC6)nc5c4c3C2=O)NC(=O)C(C)=CC=CC(C)C(O)C(C)C(O)C(C)C(OC(C)=O)C1C (stereo not drawn) [Example 3c, 2'-[4""(2'""-hydroxyethyl)-1""-piperazinyl]rifamycin P]",16,0.008,8,0.008,32,4,3.3,> 20,128,0.016,4,64,0.016,0.032,
